Laboratory results as given in patent publication US20200072837A1, “METHODS FOR PREVENTING, MODULATING AND/OR REDUCING CARDIOVASCULAR DISEASE” (OP-T LLC, priority 2018, published 2020).

Tests used:
NOD mice [1] = test: Development of diabetes in NOD mice treated with CD154 peptides; assay type: in vivo, mouse; conditions: weekly iv injection from 6 weeks of age, diabetic = blood glucose above 250 mg/dL on 3 consecutive measures
Protocol: (§1) Peptides were designed based on the amino acid sequence of mouse CD154 protein (SEQ ID NO:1) in the SwissPro database. […] Weekly after the initial injection, another 100 ug of peptide (or 100 ul of saline in the case of the Control mice) was injected into the tail vein. At 10 weeks of age, mice were monitored for diabetes, as indicated by a blood glucose level greater than 250 mg/dL for three consecutive days. During this time, blood was also taken from the tail vein, or by sub-mandibular venal puncture, and the level of CD4+ and CD8+ cells determined by flow cytometry using antibodies for CD4 protein and CD8 protein.
NOD mice at 6 weeks of age were injected weekly iv with 25 ug (1 mg/kg) of each peptide through 45 weeks. Each cohort included 10 animals. Blood glucoses were measured and levels at 250 mg/dl or higher for 3 consecutive measures were considered diabetic. […] (This is showing in FIG. 1).

ApoE-/- mice [2] = test: LDL cholesterol in ApoE-/- mice; assay type: in vivo, mouse; conditions: 1 mg/kg IV once a week for 4 weeks, treated versus untreated
Protocol: In this study, six ApoE−/− mice received a normal chow diet from 0 to 20 weeks of age. At 20 weeks of age, three mice were randomly assigned to receive dose of 1 mg/kg of KGYY6 (6-mer—SEQ ID NO:4) by IV tail injection, once a week for a period of 4 weeks. Control mice received vehicle only.

ApoE-/- mice [3] = test: Atherosclerotic changes in ApoE-/- mice on high fat diet (en-face Sudan IV, Paigen method, trichrome); assay type: in vivo, mouse
Protocol: ApoE−/− mice were fed a high fat diet for 16 weeks. Mice were randomly assigned to receive dose of 1 mg/kg of KGYY6 (6-mer—SEQ ID NO:4) by IV tail injection, once a week for a period of 4 weeks. Control mice received vehicle only. Atherosclerosis was investigated by several methods. […] FIG. 28A is an image of KGYY6 treated aortic en-face Sudan IV staining and FIG. 28B is an image of control (untreated) aortic en-face Sudan staining.
Further, measurement of plaque area and morphology was performed using the Paigen method. This method obtains sequential 5 um aortic cross sections from the aortic root beginning at the valve leaflets into the ascending aorta. At 50 um intervals, slides are stained after which the area of atherosclerotic lesion is measured. Individual plaque area measurements are plotted against the micrometer intervals and a curve is established, with the area under the curve (AUC) giving the total volume of plaque.
ApoE−/−mice (n=16, 4 male and 4 female per group), fed a 60% high fat diet (Research Diets) for 16 weeks. 8 mice were injected with 1 mg/kg KGYY6 and […] with vehicle alone. Glucose tolerance testing (GTT) was performed by fasting 6 hours, followed by intraperitoneal injection of 1 g/kg body weight glucose in water. Both blood glucose and serum insulin were measured at 0, 15 min, 30 min, 60 min and 2 hours.

[4] = test system: CD3+CD4+CD40+ splenic cells (Th40 cells); test: In vitro cytokine production of splenic Th40 cells, flow cytometry; assay type: cell-based, mouse; conditions: splenic lymphocytes of ApoE and C57BL/6 mice, overnight with varying concentrations of peptide
Protocol: Spleens from ApoE mice and C57BL/6 mice were processed for lymphocytes. ApoE−/− and C57BL/6 mice were fed a 60% high fat diet (research diet) for 1 week. Splenic lymphocytes were treated with 6-mer in vitro for 24 hours. Cells were placed in media overnight in the presence of varying concentrations of 6-mer peptides. The following morning, Brefeldin A was administered for 4 hours. All cells were stained for CD3, CD4, CD40 (Th40 cells) and measured by use of flow cytometry for their production of IL2, INFγ, and IL17a.
Spleens from ApoE mice and C57BL/6 mice were processed for lymphocytes, placed in media overnight in the presence of varying concentrations of KGYY6 peptide. BrefeldinA was administered for four hours.

NOD mice [5] = test: CD4/CD8 ratio in blood of peptide-treated NOD mice by flow cytometry; assay type: in vivo, mouse
Protocol: as §1

NOD mice [6] = test: Reversal of hyperglycemia in already diabetic NOD mice; assay type: in vivo, mouse
Protocol: Six mice from that had received the 6-mer peptide in Example 1, and that had subsequently developed diabetes, were injected intravenously with 100 ug of the 15-mer peptide. These mice were then given weekly injections of the 15-mer peptide into their tail veins, and their blood glucose levels monitored twice-weekly. The 15-mer peptide was administered for a total of ten weeks, after which the treatment was stopped.
(§2) At the onset of diabetes, six NOD mice were injected with 100 ug/ml of the 15-mer peptide (SEQ ID NO:9), resulting in the reversal of hyperglycemia in 80% of the recipients. Six weeks after reversal of hyperglycemia, mice were sacrificed and the pancreas removed for analysis. The pancreas was fixed, sectioned and then stained using an aldehyde/fuschsin stain that allows detection of insulin granules. Granulation of the tissue was scored as follows: 4=completely granulated; 3=75% of islet granulated; 2=50% of islet granulated, and peri-insulitis; 1=25% of islet granulated; 0=no insulin granules detected.

CD40+ T-cells = test: Binding of FITC-labeled 15-mer peptide to Th40 cells, flow cytometry; set-up: species or system mouse; conditions: lymphocytes of 9 week old NOD mice
Protocol: Total lymphocytes were isolated from 9 week old NOD mice. The lymphocytes were incubated with […], anti-CD8, and an FITC-labeled 15-mer peptide, and then analyzed by flow cytometry. Cells were gated for CD4 (both CD4hi and CD4lo populations were included) and CD4 versus the 15-mer peptide.

B cells = test: Binding of FITC-labeled 15-mer peptide to B cells, flow cytometry; set-up: species or system mouse; conditions: B cells from spleens of NOD mice, 90% CD40 positive
Protocol: B cells were isolated from the spleens of NOD mice. Sorted MHC-II+ cells were purified from total lymphocytes. Cells were stained with FITC-labeled 15 mer peptide, anti-CD40, and B cell markers CD19 and CD21. MHC-II+ cells were gated for CD19+ and CD21+ and then 15-mer peptide versus CD40 antibody was measured.

blood cells = test: Binding of biotin-conjugated 15-mer peptide to whole blood cells of type-I diabetic and control subjects; set-up: species or system human; conditions: type-I diabetes patients versus non-diabetic controls, absorbance at 405 nm
Protocol: 1 ml of whole blood was obtained from each individual and incubated with biotin-conjugated, 15-mer peptide. The cells were then exposed to horseradish peroxidase (HRP)-avidin, washed and the absorbance at 405 nm determined using a spectrophotometer.

NOD mice [7] = test: Insulin granulation of pancreas in NOD mice after reversal of hyperglycemia; assay type: in vivo, mouse; conditions: six weeks after reversal of hyperglycemia, versus irrelevant peptide
Protocol: as §2

ApoE deficient mice = test: Atherosclerosis in ApoE deficient mice on normal chow, aortic arch analysis; assay type: in vivo, mouse
Protocol: ApoE deficient mice on a normal chow diet were selected to receive a dose of 1 mg/kg of the 15-mer peptide (SEQ ID NO: 7) by IV tail injection, three times a week over a period of […], beginning at 9 weeks of age and also utilized a control. At 25 weeks, the animals were euthanized, weighed, and then had blood, spleen, and pancreas removed for analysis. The subjects were then perfused through cardiac puncture with 4% paraformaldehyde. Aortic arches were dissected, dehydrated in sucrose gradient and then flash frozen.
FIG. 17 provides an example of the lesser curvature of the aortic arch, defined proximally from the aortic outflow (AO). Of the segments seen in the trichrome stain, an intimal distance of […] was measured distally. The aortic-arch wall area subtended by this 2.5 mm stretch of the intima was calculated for each section of all mice, with maximal area of the inner-aortic-arch wall of each mouse used to compute averages per group. The luminal surface (L), aortic arch (AO), and innominate artery (I) are labelled in this FIG. 17.
Plaque was subdivided based on morphology of early lesions (observable as fatty streaks containing macrophage derived foam cells with varying degrees of lipid accumulation) compared with more advanced fibroatheromas (containing varying degrees of lipid or necrotic core and fibrous caps). All plaque within the designated 2.5 mm segment were included.

ApoE-/- mice [8] = test: Existing atherosclerotic disease in ApoE-/- mice, 4 weeks of treatment, plaque morphology; assay type: in vivo, mouse
Protocol: In this study, six ApoE−/− mice received a normal chow diet from 0 to 20 weeks of age. At 20 weeks of age, three mice were randomly assigned to receive dose of 1 mg/kg of KGYY15 (15-mer—SEQ ID NO:7) by IV tail injection, once a week for a period of 4 weeks. Control mice received vehicle only. After 4 weeks of treatment, animals were euthanized then perfused through cardiac puncture with 4% paraformaldehyde. Aortic arches were dissected in surcrose gradient and flash frozen. Approximately fifty, […] longitudinal sections were obtained per mouse. Slides were treated with trichrome stain and analyzed using cellSens software for measurements. Total plaque was measured including 2.5 mm lesser curvature and innominate artery.

[9] = Clot study in whole human blood; conditions: dosing levels similar to murine studies
Protocol: Whole human blood was administered the peptide in accordance with similar dosing levels to those used for murine studies.

[10] = trichrome staining, Image Pro Plus analysis
[11] = 1 mg/kg IV once a week for 4 weeks

With KKGYYT [KGYY6] the “development / onset of diabetes” value (NOD mice [1]) was “prevents diabetes onset in NOD mice”, the “reduction in LDL cholesterol values” (ApoE-/- mice [2]) was > 50% and the “lesion areas, en-face Sudan IV stain” value (ApoE-/- mice [3]; ApoE-/- mice, high fat diet 16 weeks, 1 mg/kg IV once a week for 4 weeks) was “significant reduction in lesion areas”. The “plaque volume (area under the curve), Paigen method” value (ApoE-/- mice [3]; ApoE-/- mice, high fat diet, aortic root cross sections) was “reduction in plaque volume under the curve”, the “plaque composition: collagen” value (ApoE-/- mice [3]; [10]) was “increased collagen” and the “plaque composition: smooth muscle content” value (ApoE-/- mice [3]; [10]) was “reduced smooth muscle content”. The “production of IFNg” value [4] was “varying degrees of reduction”, the “production of IL2” value [4] was “varying degrees of reduction” and the “production of IL17a” value [4] was “varying degrees of reduction”.
With VLQWAKKGYYTMK [13-mer] the “development / onset of diabetes” value (NOD mice [1]) was “significant effects on the development of diabetes”.
With “VLQWAKKGYYTMKSN (VLQWAKKGYYTMKSK) [15-mer, 15-mer peptide from mouse CD154]” the “development / onset of diabetes” value (NOD mice [1]) was “prevented the onset of diabetes”, the “development / onset of diabetes” value (NOD mice [1]; listed as KGYY15) was “prevents diabetes onset in NOD mice” and the “compromise of the immune system as determined by the CD4/CD8 ratio” value (NOD mice [5]) was “did not result in compromise of the immune system”. For the same substance, the reversal of hyperglycemia (NOD mice [6]; already diabetic NOD mice, 100 ug iv weekly for ten weeks) was “can reverse hyperglycemia”, the “return of hyperglycemia after cessation of the treatment” value (NOD mice [6]; diabetic NOD mice, treatment stopped after ten weeks) was ≤ 7 weeks and the “recipients with reversal of hyperglycemia” value (NOD mice [6]; six NOD mice injected at onset of diabetes) was 80%. For the same substance, the “CD40+ T-cells that bind the peptide” value (CD40+ T-cells) was 90%, the “B cells that bound the peptide” value (B cells) was 8% and the “peptide binding activity of blood cells” value (blood cells) was “higher 15-mer peptide binding activity than cells from non-diabetic controls”. The “insulin granulation of the pancreas” value (NOD mice [7]) was “preserved insulin granules in the majority of the mice”, the atherosclerosis (ApoE deficient mice; 1 mg/kg IV three times a week) was “abrogates atherosclerosis” and the “total area of the 2.5 mm segment of the lesser curvature of the aortic arch” value (ApoE deficient mice; 1 mg/kg IV three times a week from 9 weeks of age) was “substantially reduced”. For the same substance, the “total number of plaque” value (ApoE deficient mice; 1 mg/kg IV three times a week, plaque within 2.5 mm segment) was “significantly decreased”, the “average cap width (cap size)” value (ApoE-/- mice [8]; [11]) was “greater” and the “average core width (core size/plaque size)” value (ApoE-/- mice [8]; [11]) was “decreased”. For the same substance, the “cap to core ratio of advanced plaques” value (ApoE-/- mice [8]; [11]) was “reduced”, the “number of individual early plaques and advanced plaques” value (ApoE-/- mice [8]; 1 mg/kg IV once a week for 4 weeks from 20 weeks of age) was “reduced” and the “clotting of whole human blood” value [9] was “does not modify or change the clotting of whole human blood significantly outside of normally recognized levels”.
